TGI data for 8 compounds are collected here from PubChem BioAssay (NCI).

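Five concentrations, 48 hours, 96-well plates. TGI: concentration producing complete growth inhibition.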

Common to all, as to experiment: NCI anticancer screen, dose series, 48 h
For experiment [1], the system named is A549 NSCLC.
In experiment [2] the test system is COLO 205 colon.
In experiment [3] the test system is DLD-1 colon.
Experiment [4] relates to DMS 273 small cell lung.
The subject of experiment [5] is HOP-18 NSCLC.
In experiment [6] the test system is HOP-92 NSCLC.
Experiment [7] concerns K-562 leukemia.
In experiment [8] the test system is KM20L2 colon.
Experiment [9] has as its system LXFL 529 NSCLC.
Experiment [10] deals with M19-MEL melanoma.
Experiment [11] has as its system SN12C renal.
In experiment [12] the test system is SNB-78 CNS.
Experiment [13] has as its system UACC-62 melanoma.
The test system of experiment [14] is UO-31 renal.
Experiment [15] relates to BT-549 breast.
The subject of experiment [16] is MCF7 breast.
The test system of experiment [17] is MDA-MB-435.
The subject of experiment [18] is T-47D breast.
In experiment [19] the test system is NCI-H522 lung.
The subject of experiment [20] is XF 498 CNS.

On to `Nc1ccccc1Sc1ccc(Cl)cc1`, for which the TGI in [1] is above 100 µM; in experiment [2], 44.1 µM; in experiment [3] it was above 100 µM; in [4], 72.5 µM; in experiment [5], above 100 µM; in experiment [6], 41.1 µM. The TGI is 94.4 µM in experiment [7]; 42.9 µM in experiment [8]; above 100 µM in experiment [9]; 60.7 µM in [10]; 56.1 µM in experiment [11]; 46.6 µM in experiment [12]. For the same compound, the TGI in [13] was above 100 µM; in [14], 51 µM.

As to `CCCCN(CCCC)c1ccc(N=Nc2ccc(S(=O)(=O)O)cc2)cc1`, the TGI is above 100 µM in [1]; above 100 µM in [15]; 37.8 µM in experiment [2]; 22.1 µM in experiment [6]; above 100 µM in experiment [7]; 49.6 µM in [16]. For the same compound, the TGI is above 100 µM in experiment [17]; 85 µM in [11]; 55.5 µM in [18]; above 100 µM in [13]; above 100 µM in experiment [14].

As to `C/C(=C1/N=C(c2cc([N+](=O)[O-])ccc2Cl)N(C2=CC=C(Cl)CC2)C1=O)c1cc2ccccc2oc1=O`, the TGI in [1], in experiment [2], in experiment [3], in experiment [5], in [7] and in [8] was above 100 µM in each case. Besides, the TGI in experiment [9], in experiment [10], in experiment [19], in experiment [11], in [12] and in [13] was above 100 µM in each case. In experiment [14], the TGI was above 100 µM.

For `Cc1cc(S(N)(=O)=O)c(S/C(=N\Nc2ccc([N+](=O)[O-])cc2)c2ccc(Cl)cc2)cc1Cl`, the TGI in [1] was 7.48 µM; in experiment [15], 35.4 µM; in experiment [2] it was above 100 µM; in experiment [6], 5.4 µM; in [7], above 100 µM; in [16], 4.59 µM. Also, the TGI is 6.88 µM in experiment [17]; 11.5 µM in experiment [19]; 10.9 µM in experiment [11]; above 100 µM in experiment [18]; 20.2 µM in [13]; 22 µM in [14].

Regarding `CC1=CC[C@H](C)C(C)(C)C1/C=C/C(C)=C/CC[C@@]1(CO)[C@H](CCCO)/C(=C(/C)C=O)CC[C@]1(C)O` (stereo partly specified), the TGI in experiment [1] came out at 6.21 µM; in experiment [2], 3.51 µM; in [3], 15.1 µM; in [4], 13.9 µM; in [5], 28.9 µM; in experiment [7] it was 11.8 µM. Also, the TGI in [8] was found to be 8.23 µM; in [9], 20.2 µM; in experiment [10], 53.3 µM; in [19], 11.3 µM; in experiment [11], 19.1 µM; in experiment [12], 27.5 µM. The TGI was determined as 21.2 µM in [14] and 19.9 µM in [20].

For the compound `COc1cccc(NC(=O)N/C(=C/c2ccc(N(CCC#N)CCC#N)cc2)NC(=O)c2cc([N+](=O)[O-])ccc2Cl)c1`, the TGI in experiment [1], in experiment [2], in experiment [3], in experiment [4], in experiment [5] and in [6] was above 100 µM in each case. Moreover, the TGI in experiment [7], in experiment [8], in [9], in experiment [10], in experiment [19] and in [11] was above 100 µM in each case. In addition, the TGI in [12], in experiment [13], in experiment [14] and in experiment [20] was above 100 µM each time.

As to `CC(=O)/C=C/c1c[nH]c(=O)[nH]c1=O`, the TGI is 1090 µM in experiment [1]; 395 µM in [2]; 790 µM in [3]; 324 µM in experiment [4]; 102 µM in [6]; 967 µM in experiment [7]. Also, the TGI in experiment [8] is 508 µM; in [10], 771 µM; in experiment [16], 516 µM; in [19], 295 µM; in experiment [11], 573 µM; in experiment [12], 756 µM. The results for the TGI in [13], in [14] and in experiment [20] were 574 µM, 397 µM and 151 µM, respectively.

Regarding `O=C(COC(=O)c1ccccc1)c1ccc(Br)cc1`, the TGI in [1] was 40.5 µM; in experiment [15], 21.1 µM; in experiment [2], 26.5 µM; in [6], 30.5 µM; in experiment [7], above 100 µM; in experiment [16] it was 24.8 µM. In addition, the TGI in experiment [17] was 20.4 µM; in experiment [11], 29.4 µM; in experiment [18], 62.6 µM; in experiment [13], 26.1 µM; in experiment [14], 6.08 µM.
